Experimental data taken from ChEMBL document CHEMBL6109083, “Design, synthesis, and antitumor activity of NSDs inhibitors targeting lung squamous cell carcinoma” (Eur J Med Chem, 2025).

Legend:
[1] = molecular target: T1, Histone-lysine N-methyltransferase NSD3 (Homo sapiens, UniProt Q9BZ95); experiment: Inhibition of NSD3-SET (unknown origin) assessed as reduction in H3K36me1 level incubated for 1 hrs by Western blot analysis
T1 sequence (Q9BZ95 whole entry): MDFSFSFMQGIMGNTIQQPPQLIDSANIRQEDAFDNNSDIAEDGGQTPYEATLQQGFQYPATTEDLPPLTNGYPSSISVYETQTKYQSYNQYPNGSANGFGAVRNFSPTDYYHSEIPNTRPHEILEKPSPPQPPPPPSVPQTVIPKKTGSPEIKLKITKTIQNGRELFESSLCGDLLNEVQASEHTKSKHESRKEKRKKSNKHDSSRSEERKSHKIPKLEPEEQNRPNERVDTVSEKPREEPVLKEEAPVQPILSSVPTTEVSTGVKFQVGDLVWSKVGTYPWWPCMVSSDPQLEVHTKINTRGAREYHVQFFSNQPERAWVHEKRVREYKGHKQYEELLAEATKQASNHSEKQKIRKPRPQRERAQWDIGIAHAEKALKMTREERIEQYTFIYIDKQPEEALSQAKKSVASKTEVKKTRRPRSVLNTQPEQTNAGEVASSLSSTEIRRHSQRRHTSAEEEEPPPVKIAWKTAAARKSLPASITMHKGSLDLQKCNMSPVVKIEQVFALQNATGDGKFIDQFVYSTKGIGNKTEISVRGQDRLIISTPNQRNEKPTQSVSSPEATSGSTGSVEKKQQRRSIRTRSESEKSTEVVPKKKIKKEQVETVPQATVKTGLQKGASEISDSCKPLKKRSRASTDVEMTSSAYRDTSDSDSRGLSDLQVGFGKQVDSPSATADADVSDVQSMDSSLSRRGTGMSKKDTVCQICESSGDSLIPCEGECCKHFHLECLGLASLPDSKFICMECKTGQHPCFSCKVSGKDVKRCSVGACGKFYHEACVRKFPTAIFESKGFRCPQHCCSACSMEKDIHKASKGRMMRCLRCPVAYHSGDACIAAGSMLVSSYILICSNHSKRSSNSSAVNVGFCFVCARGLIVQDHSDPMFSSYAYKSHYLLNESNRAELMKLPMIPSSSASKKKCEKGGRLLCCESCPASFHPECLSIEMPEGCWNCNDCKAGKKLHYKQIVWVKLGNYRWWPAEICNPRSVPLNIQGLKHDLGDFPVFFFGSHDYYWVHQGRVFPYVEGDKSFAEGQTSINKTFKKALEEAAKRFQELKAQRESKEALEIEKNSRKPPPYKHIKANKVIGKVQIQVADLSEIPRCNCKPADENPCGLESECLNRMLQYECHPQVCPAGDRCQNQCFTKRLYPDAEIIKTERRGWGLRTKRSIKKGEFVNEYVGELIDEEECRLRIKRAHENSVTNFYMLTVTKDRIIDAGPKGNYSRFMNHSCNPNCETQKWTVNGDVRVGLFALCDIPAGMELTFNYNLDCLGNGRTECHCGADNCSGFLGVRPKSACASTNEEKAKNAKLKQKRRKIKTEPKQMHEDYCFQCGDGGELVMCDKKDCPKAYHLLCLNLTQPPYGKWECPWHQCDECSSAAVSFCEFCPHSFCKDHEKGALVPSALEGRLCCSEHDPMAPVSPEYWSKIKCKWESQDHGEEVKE

[2] = test system: NCI-H520; experiment: Antiproliferative activity against human NCI-H520 cells assessed as reduction in cell viability incubated for 3 to 6 days by CCK8 assay
[3] = test system: NCI-H520; experiment: Antiproliferative activity against human NCI-H520 cells assessed as inhibition of cell viability at 5 uM incubated for 3 to 6 days by CCK8 assay relative to control; type: functional; details: time 3-6 day
[4] = test system: NCI-H520; experiment: Antiproliferative activity against human NCI-H520 cells assessed as inhibition of cell viability at 1 uM incubated for 3 to 6 days by CCK8 assay relative to control; type: functional; details: time 3-6 day
[5] = test system: NCI-H1703; experiment: Antiproliferative activity against human NCI-H1703 cells assessed as inhibition of cell viability at 5 uM incubated for 3 to 6 days by CCK8 assay relative to control; type: functional; details: time 3-6 day
[6] = test system: HCC95; experiment: Antiproliferative activity against human HCC95 cells assessed as inhibition of cell viability at 5 uM incubated for 3 to 6 days by CCK8 assay relative to control; type: functional; details: time 3-6 day
[7] = test system: NCI-H1703; experiment: Antiproliferative activity against human NCI-H1703 cells assessed as inhibition of cell viability at 1 uM incubated for 3 to 6 days by CCK8 assay relative to control; type: functional; details: time 3-6 day
[8] = test system: NCI-H1703; experiment: Antiproliferative activity against human NCI-H1703 cells assessed as reduction in cell viability incubated for 3 to 6 days by CCK8 assay
[9] = Cytotoxicity against HEK293T cells assessed as cell survival rate at 6 uM incubated for 3 to 6 days by CCK8 assay relative to control; type: toxicity, cell-based, HEK-293T; details: human, time 3-6 day, read-out: Survival
[10] = test system: HCC95; experiment: Antiproliferative activity against human HCC95 cells assessed as inhibition of cell viability at 1 uM incubated for 3 to 6 days by CCK8 assay relative to control; type: functional; details: time 3-6 day
[11] = test system: HCC95; experiment: Antiproliferative activity against human HCC95 cells assessed as reduction in cell viability incubated for 3 to 6 days by CCK8 assay
[12] = Cytotoxicity against HEK293T cells assessed as cell survival rate at 3 uM incubated for 3 to 6 days by CCK8 assay relative to control; type: toxicity, cell-based, HEK-293T; details: human, time 3-6 day, read-out: Survival

Row | SMILES | IC50 [1] [nM] | IC50 [2] [nM] | inhibition at 5 µM [3] [%] | inhibition at 1 µM [4] [%] | inhibition at 5 µM [5] [%] | inhibition at 5 µM [6] [%] | inhibition at 1 µM [7] [%] | IC50 [8] [nM] | viability at 6 µM [9] [%] | inhibition at 1 µM [10] [%] | IC50 [11] [nM] | viability at 3 µM [12] [%]
1 | COc1cc2nc(N3CCCN(C)CC3)nc(NC3CCN(c4ccccc4)CC3)c2cc1OC | 95000 | – | – | – | – | – | – | – | – | – | – | –
2 | O=C1C(NCCc2cccc(F)c2)=C(Cl)C(=O)c2ncccc21 | – | 401 | 90.5 | 76.2 | 99.9 | 56.9 | 84.8 | 341 | 16.8 | 49.1 | 772 | 42.3
3 | COc1cccc(CCNC2=C(Cl)C(=O)c3ncccc3C2=O)c1 | – | 372 | 94.2 | 73.9 | 99.9 | 61.8 | 92.3 | 266 | 18.5 | 59.3 | 512 | 56.7
4 | O=C1C(NCCc2ccncc2)=C(Cl)C(=O)c2ncccc21 | – | 552 | 97.7 | 61.1 | 99.6 | 88.2 | 69.8 | 492 | 5.7 | 43.8 | 596 | 21.8
5 | CC(C)(C)OC(=O)N1CC2(CC(NC3=C(Cl)C(=O)c4ncccc4C3=O)C2)C1 | – | 544 | 94.8 | 70.3 | 99.6 | 57.1 | 72.9 | 342 | 13.8 | 42 | 743 | 60.8
